From PubChem BioAssay (NCI)
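All cell lines were grown in 96-well plates and treated with compound for 48 hours. Abbreviation: GI50, concentration required for 50% inhibition of growth. TGI: concentration producing complete growth inhibition.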

How the values were obtained:
Assay in all cases: NCI anticancer screen, dose series, 48 h
RXF 393 renal = test system: RXF 393 renal
K-562 leukemia = test system: K-562 leukemia
MALME-3M melanoma = test system: MALME-3M melanoma
SNB-19 CNS = test system: SNB-19 CNS
UACC-257 melanoma = test system: UACC-257 melanoma
HOP-62 NSCLC = test system: HOP-62 NSCLC
MOLT-4 leukemia = test system: MOLT-4 leukemia
RPMI-8226 leukemia = test system: RPMI-8226 leukemia
SF-268 CNS = test system: SF-268 CNS
NCI-H522 lung = test system: NCI-H522 lung
IGROV1 ovarian = test system: IGROV1 ovarian
EKVX NSCLC = test system: EKVX NSCLC
SK-MEL-2 melanoma = test system: SK-MEL-2 melanoma
CAKI-1 renal = test system: CAKI-1 renal
BT-549 breast = test system: BT-549 breast
ACHN renal = test system: ACHN renal
CCRF-CEM leukemia = test system: CCRF-CEM leukemia
SK-MEL-28 melanoma = test system: SK-MEL-28 melanoma
SNB-75 CNS = test system: SNB-75 CNS
SF-539 CNS = test system: SF-539 CNS
NCI-H226 lung = test system: NCI-H226 lung
U251 CNS = test system: U251 CNS
OVCAR-8 ovarian = test system: OVCAR-8 ovarian
A549 NSCLC = test system: A549 NSCLC
LOX IMVI melanoma = test system: LOX IMVI melanoma
786-0 renal = test system: 786-0 renal
M14 melanoma = test system: M14 melanoma
SR leukemia = test system: SR leukemia
DU-145 prostate = test system: DU-145 prostate
KM12 colon = test system: KM12 colon
NCI-H23 lung = test system: NCI-H23 lung
PC-3 prostate = test system: PC-3 prostate
HS 578T breast = test system: HS 578T breast
OVCAR-5 ovarian = test system: OVCAR-5 ovarian
NCI/ADR-RES ovarian = test system: NCI/ADR-RES ovarian
OVCAR-4 ovarian = test system: OVCAR-4 ovarian
TK-10 renal = test system: TK-10 renal
HCC-2998 colon = test system: HCC-2998 colon
HT29 colon = test system: HT29 colon
SK-OV-3 ovarian = test system: SK-OV-3 ovarian
SW-620 colon = test system: SW-620 colon
NCI-H460 lung = test system: NCI-H460 lung
SF-295 CNS = test system: SF-295 CNS
HL-60(TB) leukemia = test system: HL-60(TB) leukemia
MDA-MB-435 = test system: MDA-MB-435
SK-MEL-5 melanoma = test system: SK-MEL-5 melanoma
UACC-62 melanoma = test system: UACC-62 melanoma
HOP-92 NSCLC = test system: HOP-92 NSCLC
A498 renal = test system: A498 renal
SN12C renal = test system: SN12C renal
UO-31 renal = test system: UO-31 renal
MDA-MB-231 breast = test system: MDA-MB-231 breast
COLO 205 colon = test system: COLO 205 colon

CCN(CC)c1ccc2c(c1)Oc1nc(N)c(C#N)c(N)c1C2Sc1ccc(C)cc1 (stereo unspecified)
GI50 (RXF 393 renal): 1770 nM
TGI (RXF 393 renal): 3220 nM
GI50 (K-562 leukemia): 2300 nM
TGI (K-562 leukemia): > 100000 nM
GI50 (MALME-3M melanoma): 1680 nM
TGI (MALME-3M melanoma): 3060 nM
GI50 (SNB-19 CNS): 1360 nM
TGI (SNB-19 CNS): 2670 nM
GI50 (UACC-257 melanoma): 1850 nM
TGI (UACC-257 melanoma): 3390 nM
GI50 (HOP-62 NSCLC): 1760 nM
TGI (HOP-62 NSCLC): 3290 nM
GI50 (MOLT-4 leukemia): 824 nM
TGI (MOLT-4 leukemia): 4300 nM
GI50 (RPMI-8226 leukemia): 1900 nM
TGI (RPMI-8226 leukemia): 5610 nM
GI50 (SF-268 CNS): 1670 nM
TGI (SF-268 CNS): 3250 nM
GI50 (NCI-H522 lung): 1750 nM
TGI (NCI-H522 lung): 3170 nM
GI50 (IGROV1 ovarian): 1090 nM
TGI (IGROV1 ovarian): 2360 nM
GI50 (EKVX NSCLC): 605 nM
TGI (EKVX NSCLC): 2050 nM
GI50 (SK-MEL-2 melanoma): 1720 nM
TGI (SK-MEL-2 melanoma): 3120 nM
GI50 (CAKI-1 renal): 1460 nM
TGI (CAKI-1 renal): 2780 nM
GI50 (BT-549 breast): 1160 nM
TGI (BT-549 breast): 2500 nM
GI50 (ACHN renal): 1580 nM
TGI (ACHN renal): 2930 nM
GI50 (CCRF-CEM leukemia): 366 nM
TGI (CCRF-CEM leukemia): 2110 nM
GI50 (SK-MEL-28 melanoma): 1700 nM
TGI (SK-MEL-28 melanoma): 3090 nM
GI50 (SNB-75 CNS): 1340 nM
TGI (SNB-75 CNS): 2630 nM
GI50 (SF-539 CNS): 1600 nM
TGI (SF-539 CNS): 2960 nM
GI50 (NCI-H226 lung): 2010 nM
TGI (NCI-H226 lung): 4620 nM
GI50 (U251 CNS): 1200 nM
TGI (U251 CNS): 2740 nM
GI50 (OVCAR-8 ovarian): 1510 nM
TGI (OVCAR-8 ovarian): 3080 nM
GI50 (A549 NSCLC): 1930 nM
TGI (A549 NSCLC): 3840 nM
GI50 (LOX IMVI melanoma): 320 nM
TGI (LOX IMVI melanoma): 1060 nM
GI50 (786-0 renal): 1880 nM
TGI (786-0 renal): 3450 nM
GI50 (M14 melanoma): 1570 nM
TGI (M14 melanoma): 3220 nM
GI50 (SR leukemia): 261 nM
TGI (SR leukemia): 834 nM
GI50 (DU-145 prostate): 1800 nM
TGI (DU-145 prostate): 3210 nM
GI50 (KM12 colon): 1050 nM
TGI (KM12 colon): 2280 nM
GI50 (NCI-H23 lung): 1260 nM
TGI (NCI-H23 lung): 2640 nM
GI50 (PC-3 prostate): 1260 nM
TGI (PC-3 prostate): 2600 nM
GI50 (HS 578T breast): 1590 nM
TGI (HS 578T breast): 4570 nM
GI50 (OVCAR-5 ovarian): 1710 nM
TGI (OVCAR-5 ovarian): 3120 nM
GI50 (NCI/ADR-RES ovarian): 2190 nM
TGI (NCI/ADR-RES ovarian): 5040 nM
GI50 (OVCAR-4 ovarian): 1750 nM
TGI (OVCAR-4 ovarian): 3180 nM
GI50 (TK-10 renal): 2960 nM
TGI (TK-10 renal): 4480 nM
GI50 (HCC-2998 colon): 1780 nM
TGI (HCC-2998 colon): 3320 nM
GI50 (HT29 colon): 1840 nM
TGI (HT29 colon): 3410 nM
GI50 (SK-OV-3 ovarian): 1940 nM
TGI (SK-OV-3 ovarian): 3470 nM
GI50 (SW-620 colon): 1500 nM
TGI (SW-620 colon): 3210 nM
GI50 (NCI-H460 lung): 1390 nM
TGI (NCI-H460 lung): 3020 nM
GI50 (SF-295 CNS): 1750 nM
TGI (SF-295 CNS): 3190 nM
GI50 (HL-60(TB) leukemia): 564 nM
TGI (HL-60(TB) leukemia): 3140 nM
GI50 (MDA-MB-435): 1250 nM
TGI (MDA-MB-435): 2540 nM
GI50 (SK-MEL-5 melanoma): 1760 nM
TGI (SK-MEL-5 melanoma): 3150 nM
GI50 (UACC-62 melanoma): 1670 nM
TGI (UACC-62 melanoma): 3070 nM
GI50 (HOP-92 NSCLC): 1310 nM
TGI (HOP-92 NSCLC): 2600 nM
GI50 (A498 renal): 1890 nM
TGI (A498 renal): 3300 nM
GI50 (SN12C renal): 1680 nM
TGI (SN12C renal): 3150 nM
GI50 (UO-31 renal): 1350 nM
TGI (UO-31 renal): 2630 nM
GI50 (MDA-MB-231 breast): 1450 nM
TGI (MDA-MB-231 breast): 2810 nM
GI50 (COLO 205 colon): 1810 nM
TGI (COLO 205 colon): 3490 nM
